Laboratory results taken from patent US20260269287A1, “ALL-NONAQUEOUS MEMBRANE-FREE FLOW BATTERIES” (University of Cincinnati, priority 2023, published 2026).
Converted amounts (≈) assume the structure as drawn. “Also recorded” adds a separate entry of the source.

Tests used:
Assay type in all cases: physicochemical
[1] = Solubility test of C18-PTZ in FEC/LiTFSI; details: in FEC/LiTFSI (1.2 M)
Experimental: Solubility test. […] The solution was gradually added to a vial containing known amounts of C18-PTZ. Once a clear solution was just obtained, the volume of the electrolyte was determined by an analytical pipette. The solubility of organic compounds was calculated from the ratio of the molar amount to electrolyte volume. These processes are repeated twice, and the averaged values are presented.
Solubility Test. […] The solution was incrementally added to a vial containing known quantities of C18-PTZ. The addition continued until a clear solution was achieved, at which point the volume of the electrolyte was measured using an analytical pipette. Subsequently, the solubility of the organic compounds was calculated by finding the ratio of the molar amount of C18-PTZ to the volume of the electrolyte. This entire process was repeated twice to ensure accuracy, and the averaged values of the solubility were reported as the final result.

[2] = Cyclic voltammetry of C18-PTZ in 0.1 M FEC/LiTFSI
Experimental: Electrochemical characterization. CV studies were carried out to estimate the electrochemical properties of redox material (C18-PTZ) as well as the crossover of redox-active cathode material before and after long-term battery cycling. For CV measurements, 5 mM of C18-PTZ solution were prepared in 0.1 M FEC/LiTFSI electrolyte. A 3-mm glassy carbon was used as the working electrode and was polished with 50 nm Al2O3 before measurements. Platinum wire (0.5 mm) was used as the counter electrodes. A Ag/Ag^+ electrode was used as the reference electrode.
Electrochemical characterization. For the cyclic voltammetry (CV) measurements, C18-PTZ (5 mM) solutions were prepared in FEC/LiTFSI (0.1 M) electrolyte. A glassy carbon disk (CHI Instrument, 3 mm) was used as the working electrode and was polished with aqueous Al2O3(Pine Research Instrumentation, Inc., […]) before the measurements. A piece of Pt wire (Pine Research Instrumentation, Inc., thickness 0.5 mm, purity 99.99%) was used as the counter electrode while an Ag/Ag^+ (MTI Corp) electrode was used as the reference electrode. The CV measurements were performed using a Bio-Logic potentiostat. The charge/discharge performances were evaluated using Land and Bio-Logic potentiostats.

[3] = Crossover study of C18-PTZ in the Design-I triphasic system under static conditions (UV-visible, CV); details: 0.5 M in FEC phase, 10-day period
From the text: (§1) Selection of the anode and cathode materials. Achieving a high capacity for RFBs requires the selection of redox-active materials with high potential. In this study, Li metal was selected as the anode because of its low electrochemical potential (−3.04 V vs. a standard hydrogen electrode), high energy density, and theoretical capacity (~3,860 mAh/g). Graphite felt (GF) was selected as the cathode owing to its chemical inertness in nonaqueous electrolytes, high electrical conductivity, highly porous structure, and high specific surface area. […] The solubility properties of several redox-active catholyte compounds, including derivatives of phenothiazine, cyclopropenium, 2,2,6,6-tetramethylpiperidinyloxy (TEMPO), anthraquinone (AQ), and ferrocene, were evaluated as the three supporting electrolytes in the triphasic system (FIG. 88). […] The system was evaluated for the potential crossover of 0.5 M C18-PTZ dissolved in the FEC phase. […]
(§2) Selection of the anode and cathode materials. […] The solubility properties of several redox-active catholyte compounds, including derivatives of phenothiazine, cyclopropenium, 2,2,6,6-tetramethylpiperidinyloxy (TEMPO), anthraquinone (AQ), and ferrocene, were evaluated as the three supporting electrolytes in the triphasic system (FIG. 85). […] The system was evaluated for the potential crossover of 0.5 M C18-PTZ dissolved in the FEC phase. […]

[4] = RDE linear sweep voltammetry of C18-PTZ in 0.1 M FEC/LiTFSI; details: 1 mM in 0.1 M FEC/LiTFSI
Experimental: To investigate the electrochemical kinetics of C18-PTZ redox molecules, linear sweep voltammetry (LSV) was conducted using the rotating disk electrode (RDE) technique. The LSV curves of C18-PTZ were measured in electrolyte solutions containing 1.0 mM C18-PTZ in 0.1 M FEC/LiTFSI solution, and the results are presented in FIG. 68(a).
Calculation of diffusion coefficient and electron transfer rate. Linear sweep voltammetry (LSV) studies were carried out using a Pine modulated speed rotator with Biologic potentiostats. Rotating disk electrode (RDE, diameter: 5 mm), Pt wire electrode and Ag/Ag^+ electrode were used as the working, counter and reference electrodes, respectively. Before testing, the samples were purged with argon for 10 min. LSV dates were collected at different rotation rates ranging from 100 to 1600 rpm. The diffusion coefficient (Do) of electroactive materials were calculated from the Levich plot using Equation 1.
The kinetic rate constant is calculated by Equation 2.
The LSV investigations were conducted using a Pine modulated speed rotator paired with Biologic potentiostats. […] The diffusion coefficient (D) of electroactive materials was calculated from the Lévich plot using Equation 1. The kinetic rate constant is calculated by Equation 2.

[5] = Solubility of catholyte compounds in the three supporting electrolytes of the triphasic system
From the text: as §1, §2

CCCCCCCCCCCCCCCCCCN1c2ccccc2Sc2ccccc21 [C18-PTZ]
solubility [1]: 500 mM (≈ 226 mg/mL)
redox couple potential ([2]; 5 mM in 0.1 M FEC/LiTFSI): 0.35 V vs. Ag/Ag^+
electrochemical stability on repeated CV cycling ([2]; FEC/LiTFSI (0.1 M), 50 mV/s, 500 cycles): excellent electrochemical stability; also recorded: high electrochemical stability
peak potential separation ([2]; scan rate 50 mV/s): 68 mV
peak potential separations ([2]; scan rate 50 mV/s, unit not given): ~ 68
ratio of cathodic peak current (ipc) and anodic peak current (ipa) ([2]; scan rates 50 to 250 mV/s): approximately 1
crossover out of the FEC layer [3]: no significant crossover
kinetic rate constant (k0) [4]: 0.00351 cm/s
diffusion coefficient D ([4]; Levich plot): 6.23×10^−6 cm^2/s
solubility in TEGDME and NFTTS ([5]; anolyte and intermediate layers of triphasic system): poor solubility
solubility in FEC ([5]; catholyte solvent of triphasic system): high solubility
